Measured values taken from PubChem BioAssay (NCI).
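Assay format: 96-well plates, 48-hour exposure. GI50 is the concentration that inhibits growth by half. TGI: total growth inhibition.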

What was measured:
Test in all cases: NCI tumour cell line growth inhibition, 48 h
[1] = tested on: 786-0 renal
[2] = tested on: A549 NSCLC
[3] = tested on: ACHN renal
[4] = tested on: BT-549 breast
[5] = tested on: CAKI-1 renal
[6] = tested on: CCRF-CEM leukemia
[7] = tested on: COLO 205 colon
[8] = tested on: DU-145 prostate
[9] = tested on: EKVX NSCLC
[10] = tested on: HCC-2998 colon
[11] = tested on: HCT-15 colon
[12] = tested on: HOP-62 NSCLC
[13] = tested on: HOP-92 NSCLC
[14] = tested on: HS 578T breast
[15] = tested on: HT29 colon
[16] = tested on: IGROV1 ovarian
[17] = tested on: K-562 leukemia
[18] = tested on: KM12 colon
[19] = tested on: LOX IMVI melanoma
[20] = tested on: M14 melanoma
[21] = tested on: MCF7 breast
[22] = tested on: MDA-MB-231 breast
[23] = tested on: MDA-MB-435
[24] = tested on: MOLT-4 leukemia
[25] = tested on: NCI-H226 lung
[26] = tested on: NCI-H23 lung
[27] = tested on: NCI-H460 lung
[28] = tested on: NCI-H522 lung
[29] = tested on: NCI/ADR-RES ovarian
[30] = tested on: OVCAR-3 ovarian
[31] = tested on: OVCAR-4 ovarian
[32] = tested on: OVCAR-5 ovarian
[33] = tested on: OVCAR-8 ovarian
[34] = tested on: PC-3 prostate
[35] = tested on: RPMI-8226 leukemia
[36] = tested on: RXF 393 renal
[37] = tested on: SF-268 CNS
[38] = tested on: SF-295 CNS
[39] = tested on: SF-539 CNS
[40] = tested on: SK-MEL-2 melanoma
[41] = tested on: SK-MEL-28 melanoma
[42] = tested on: SK-MEL-5 melanoma
[43] = tested on: SK-OV-3 ovarian
[44] = tested on: SN12C renal
[45] = tested on: SNB-19 CNS
[46] = tested on: SNB-75 CNS
[47] = tested on: SW-620 colon
[48] = tested on: T-47D breast
[49] = tested on: TK-10 renal
[50] = tested on: U251 CNS
[51] = tested on: UACC-257 melanoma
[52] = tested on: UACC-62 melanoma
[53] = tested on: UO-31 renal
[54] = tested on: A498 renal
[55] = tested on: HCT-116 colon
[56] = tested on: HL-60(TB) leukemia
[57] = tested on: MALME-3M melanoma

SMILES: COC(=O)c1cc2cc(/C=C3/SC(=S)N(N(C(C)=O)C(C)=O)C3=O)oc2n1Cc1ccccc1
- GI50 [1]: 21.1 µM
- TGI [1]: 38.6 µM
- GI50 [2]: 18.1 µM
- TGI [2]: 45.9 µM
- GI50 [3]: 18.3 µM
- TGI [3]: 35.9 µM
- GI50 [4]: 24.2 µM
- TGI [4]: 54.2 µM
- GI50 [5]: 14.2 µM
- TGI [5]: 40.8 µM
- GI50 [6]: 32.3 µM
- TGI [6]: > 100 µM
- GI50 [7]: 77.6 µM
- TGI [7]: > 100 µM
- GI50 [8]: 20.7 µM
- TGI [8]: 73.4 µM
- GI50 [9]: 31 µM
- TGI [9]: > 100 µM
- GI50 [10]: 17.3 µM
- TGI [10]: 40.5 µM
- GI50 [11]: 15 µM
- TGI [11]: 52.1 µM
- GI50 [12]: 2.67 µM
- TGI [12]: 14.1 µM
- GI50 [13]: 44 µM
- TGI [13]: > 100 µM
- GI50 [14]: 24.2 µM
- TGI [14]: 76.6 µM
- GI50 [15]: 37.4 µM
- TGI [15]: > 100 µM
- GI50 [16]: 22.4 µM
- TGI [16]: 57.3 µM
- GI50 [17]: 22.7 µM
- TGI [17]: 53.7 µM
- GI50 [18]: 27.8 µM
- TGI [18]: > 100 µM
- GI50 [19]: 13.9 µM
- TGI [19]: 31.4 µM
- GI50 [20]: 11 µM
- TGI [20]: 40.6 µM
- GI50 [21]: 34.1 µM
- TGI [21]: > 100 µM
- GI50 [22]: 20.6 µM
- TGI [22]: 50.4 µM
- GI50 [23]: 29 µM
- TGI [23]: > 100 µM
- GI50 [24]: 59.9 µM
- TGI [24]: > 100 µM
- GI50 [25]: 21.9 µM
- TGI [25]: 45.2 µM
- GI50 [26]: 21.4 µM
- TGI [26]: 44.6 µM
- GI50 [27]: 19.3 µM
- TGI [27]: > 100 µM
- GI50 [28]: 19.1 µM
- TGI [28]: 48.6 µM
- GI50 [29]: 14.4 µM
- TGI [29]: 35 µM
- GI50 [30]: 19.5 µM
- TGI [30]: 51 µM
- GI50 [31]: 38.2 µM
- TGI [31]: > 100 µM
- GI50 [32]: 19 µM
- TGI [32]: 38.1 µM
- GI50 [33]: 18.3 µM
- TGI [33]: 42.8 µM
- GI50 [34]: 37.8 µM
- TGI [34]: > 100 µM
- GI50 [35]: 29.4 µM
- TGI [35]: > 100 µM
- GI50 [36]: 22 µM
- TGI [36]: 56.7 µM
- GI50 [37]: 48.2 µM
- TGI [37]: > 100 µM
- GI50 [38]: 13.2 µM
- TGI [38]: 52.4 µM
- GI50 [39]: 20.4 µM
- TGI [39]: 39.3 µM
- GI50 [40]: 40.3 µM
- TGI [40]: > 100 µM
- GI50 [41]: 38.4 µM
- TGI [41]: > 100 µM
- GI50 [42]: 25.7 µM
- TGI [42]: 62.7 µM
- GI50 [43]: 37.4 µM
- TGI [43]: 89.9 µM
- GI50 [44]: 20.7 µM
- TGI [44]: 56 µM
- GI50 [45]: 27.3 µM
- TGI [45]: > 100 µM
- GI50 [46]: 37.1 µM
- TGI [46]: > 100 µM
- GI50 [47]: 41 µM
- TGI [47]: > 100 µM
- GI50 [48]: > 100 µM
- TGI [48]: > 100 µM
- GI50 [49]: 17.4 µM
- TGI [49]: 35.1 µM
- GI50 [50]: 12.8 µM
- TGI [50]: 30.8 µM
- GI50 [51]: 25 µM
- TGI [51]: 74.9 µM
- GI50 [52]: 14.4 µM
- TGI [52]: 33 µM
- GI50 [53]: 29.7 µM
- TGI [53]: > 100 µM

SMILES: CN(CCCCCl)P(=O)(OCc1ccc([N+](=O)[O-])o1)OCC1OC(n2cc([N+](=O)[O-])c(=O)[nH]c2=O)CC1O (stereo unspecified)
- GI50 [1]: 12.7 µM
- TGI [1]: > 100 µM
- GI50 [54]: 29.6 µM
- TGI [54]: > 100 µM
- GI50 [2]: > 100 µM
- TGI [2]: > 100 µM
- GI50 [3]: 17.5 µM
- TGI [3]: > 100 µM
- GI50 [4]: 46.2 µM
- TGI [4]: > 100 µM
- GI50 [5]: 48.5 µM
- TGI [5]: > 100 µM
- GI50 [6]: 66.8 µM
- TGI [6]: > 100 µM
- GI50 [7]: 44 µM
- TGI [7]: > 100 µM
- GI50 [8]: > 100 µM
- TGI [8]: > 100 µM
- GI50 [9]: > 100 µM
- TGI [9]: > 100 µM
- GI50 [10]: 37.7 µM
- TGI [10]: > 100 µM
- GI50 [55]: 66.5 µM
- TGI [55]: > 100 µM
- GI50 [11]: > 100 µM
- TGI [11]: > 100 µM
- GI50 [56]: > 100 µM
- TGI [56]: > 100 µM
- GI50 [12]: 41.2 µM
- TGI [12]: > 100 µM
- GI50 [14]: > 100 µM
- TGI [14]: > 100 µM
- GI50 [15]: > 100 µM
- TGI [15]: > 100 µM
- GI50 [16]: > 100 µM
- TGI [16]: > 100 µM
- GI50 [17]: 49.8 µM
- TGI [17]: > 100 µM
- GI50 [18]: > 100 µM
- TGI [18]: > 100 µM
- GI50 [19]: 47.3 µM
- TGI [19]: > 100 µM
- GI50 [20]: 31.3 µM
- TGI [20]: > 100 µM
- GI50 [57]: > 100 µM
- TGI [57]: > 100 µM
- GI50 [21]: 22.8 µM
- TGI [21]: > 100 µM
- GI50 [22]: > 100 µM
- TGI [22]: > 100 µM
- GI50 [23]: > 100 µM
- TGI [23]: > 100 µM
- GI50 [24]: 25.1 µM
- TGI [24]: > 100 µM
- GI50 [25]: 42.3 µM
- TGI [25]: > 100 µM
- GI50 [26]: 75.2 µM
- TGI [26]: > 100 µM
- GI50 [27]: 3.01 µM
- TGI [27]: > 100 µM
- GI50 [28]: > 100 µM
- TGI [28]: > 100 µM
- GI50 [29]: > 100 µM
- TGI [29]: > 100 µM
- GI50 [30]: 43.6 µM
- TGI [30]: > 100 µM
- GI50 [31]: 9.75 µM
- TGI [31]: 84.8 µM
- GI50 [32]: > 100 µM
- TGI [32]: > 100 µM
- GI50 [33]: 41.6 µM
- TGI [33]: > 100 µM
- GI50 [34]: > 100 µM
- TGI [34]: > 100 µM
- GI50 [35]: > 100 µM
- TGI [35]: > 100 µM
- GI50 [36]: > 100 µM
- TGI [36]: > 100 µM
- GI50 [37]: 3 µM
- TGI [37]: > 100 µM
- GI50 [38]: 49.8 µM
- TGI [38]: > 100 µM
- GI50 [39]: 4.51 µM
- TGI [39]: > 100 µM
- GI50 [40]: > 100 µM
- TGI [40]: > 100 µM
- GI50 [41]: 45.9 µM
- TGI [41]: > 100 µM
- GI50 [42]: > 100 µM
- TGI [42]: > 100 µM
- GI50 [43]: 96.4 µM
- TGI [43]: > 100 µM
- GI50 [44]: 51.9 µM
- TGI [44]: > 100 µM
- GI50 [45]: > 100 µM
- TGI [45]: > 100 µM
- GI50 [47]: > 100 µM
- TGI [47]: > 100 µM
- GI50 [48]: > 100 µM
- TGI [48]: > 100 µM
- GI50 [49]: > 100 µM
- TGI [49]: > 100 µM
- GI50 [50]: > 100 µM
- TGI [50]: > 100 µM
- GI50 [51]: > 100 µM
- TGI [51]: > 100 µM
- GI50 [52]: 49.2 µM
- TGI [52]: > 100 µM
- GI50 [53]: > 100 µM
- TGI [53]: > 100 µM
